The results in this text go back to publication PMC10847070, “State-independent inhibition of the oncogenic Kv10.1 channel by desethylamiodarone, a comparison with amiodarone” (Pflugers Archiv, 2023).

The assay deals with T1, Kv10.1 (Eag1) (Homo sapiens, UniProt O95259).
T1 construct: gene KCNH1
T1 sequence (O95259 1-989): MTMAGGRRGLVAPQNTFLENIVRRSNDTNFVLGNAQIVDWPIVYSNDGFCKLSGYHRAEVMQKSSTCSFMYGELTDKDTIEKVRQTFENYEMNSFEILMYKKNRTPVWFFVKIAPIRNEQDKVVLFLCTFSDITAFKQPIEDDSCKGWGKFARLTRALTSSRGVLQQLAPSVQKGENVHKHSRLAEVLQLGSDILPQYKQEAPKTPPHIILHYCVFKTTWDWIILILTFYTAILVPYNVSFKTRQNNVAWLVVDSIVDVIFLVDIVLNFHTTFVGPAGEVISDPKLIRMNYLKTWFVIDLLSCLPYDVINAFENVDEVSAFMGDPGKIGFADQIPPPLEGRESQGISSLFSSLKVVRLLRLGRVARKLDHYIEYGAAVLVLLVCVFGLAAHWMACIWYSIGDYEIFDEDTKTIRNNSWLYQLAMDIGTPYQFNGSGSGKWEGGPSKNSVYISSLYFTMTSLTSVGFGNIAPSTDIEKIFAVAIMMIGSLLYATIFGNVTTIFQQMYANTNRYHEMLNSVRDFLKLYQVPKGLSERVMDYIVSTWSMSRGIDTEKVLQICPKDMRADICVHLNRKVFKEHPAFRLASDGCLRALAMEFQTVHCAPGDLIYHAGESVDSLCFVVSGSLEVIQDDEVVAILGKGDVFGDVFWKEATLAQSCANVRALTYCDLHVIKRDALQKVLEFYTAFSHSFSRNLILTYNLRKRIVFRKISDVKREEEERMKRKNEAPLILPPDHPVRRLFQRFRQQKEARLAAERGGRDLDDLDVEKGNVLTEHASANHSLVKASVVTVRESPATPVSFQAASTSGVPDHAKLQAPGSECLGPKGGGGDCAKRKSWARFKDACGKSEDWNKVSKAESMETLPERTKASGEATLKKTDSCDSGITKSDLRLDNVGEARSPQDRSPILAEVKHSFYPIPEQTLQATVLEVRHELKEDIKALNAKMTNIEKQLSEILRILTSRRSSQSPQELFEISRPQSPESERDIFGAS
Briefly: patch-clamp electrophysiology of HEK293 cells stably expressing Kv10.[…]; dose-response at +[…] mV. It counts as cell-based. Background: In patch-clamp work, channel activity is measured electrically.

Usually Kd stands for the free concentration of one partner at which half of the binding sites on the other are occupied at equilibrium, for simple one-to-one binding. Low values mean tighter binding, high ones weaker binding.

On to `CCCCc1oc2ccccc2c1C(=O)c1cc(I)c(OCCNCC)c(I)c1` [desAd, desethylamiodarone], for which the Kd worked out at 1200 nM.
